Data reported in ChEMBL document CHEMBL1141993, “Synthesis and biological activity of new 5-O-sugar modified ketolide and 2-fluoro-ketolide antibiotics” (2005).
Converted amounts (≈) assume the structure as drawn.

How the values were obtained:
Type in all cases: functional
Staphylococcus aureus [1] = assay: Minimum inhibitory concentration of compound against Ery-R Staphylococcus aureus 96:11480 was determined
Streptococcus pneumoniae [2] = assay: Minimum inhibitory concentration of compound against Ery-R Streptococcus pneumoniae 303 was determined
Streptococcus pneumoniae [3] = assay: Minimum inhibitory concentration of compound against Streptococcus pneumoniae ATCC 49619 Ery-S was determined
Staphylococcus aureus [4] = assay: Minimum inhibitory concentration of compound against Ery-S Staphylococcus aureus ATCC 29213 was determined
Haemophilus influenzae [5] = assay: Minimum inhibitory concentration of compound against Ery-S Haemophilus influenzae ATCC 49247 was determined
Streptococcus pyogenes [6] = assay: Minimum inhibitory concentration of compound against Streptococcus pyogenes ATCC 19615 Ery-S was determined
Streptococcus pneumoniae [7] = assay: Minimum inhibitory concentration of compound against Ery-R Streptococcus pneumoniae 163 was determined
Streptococcus pyogenes [8] = assay: Minimum inhibitory concentration of compound against Ery-S Streptococcus pyogenes ATCC 19615 was determined
Streptococcus pyogenes [9] = assay: Minimum inhibitory concentration of compound against Ery-R Streptococcus pyogenes 3029 was determined
Streptococcus pneumoniae [10] = assay: Minimum inhibitory concentration of compound against Ery-S Streptococcus pneumoniae ATCC 49619 was determined
Streptococcus pneumoniae [11] = assay: 1 Minimum inhibitory concentration of compound against Ery-R Streptococcus pneumoniae 163 was determined
Streptococcus pneumoniae [12] = assay: Minimum inhibitory concentration of compound against Streptococcus pneumoniae ATCC 49163 Ery-R was determined
Streptococcus pneumoniae [13] = assay: Minimum inhibitory concentration of compound against Streptococcus pneumoniae ATCC 49303 Ery-R was determined
Streptococcus pyogenes [14] = assay: Minimum inhibitory concentration of compound against Streptococcus pyogenes ATCC 13029 Ery-R was determined
Haemophilus influenzae [15] = assay: Minimum inhibitory concentration of compound against Haemophilus influenzae ATCC 49247 Ery-S was determined
Staphylococcus aureus [16] = assay: Minimum inhibitory concentration of compound against Staphylococcus aureus ATCC 96:11480 Ery-R was determined
Staphylococcus aureus [17] = assay: Minimum inhibitory concentration of compound against Staphylococcus aureus ATCC 23029 Ery-S was determined
Streptococcus pyogenes [18] = assay: Minimum inhibitory concentration of compound against Ery-R Streptococcus pyogenes 1721 was determined
Staphylococcus aureus [19] = assay: Minimum inhibitory concentration of compound against Ery-S Staphylococcus aureus ATCC 23029 was determined
Streptococcus pyogenes [20] = assay: Minimum inhibitory concentration of compound against Ery-R Streptococcus pyogenes 13029 was determined
Streptococcus pyogenes [21] = assay: Minimum inhibitory concentration of compound against Ery-R Streptococcus pyogenes 3262 was determined
Streptococcus pyogenes [22] = assay: Minimum inhibitory concentration of compound against Ery-R Streptococcus pyogenes 1850 was determined
Streptococcus pneumoniae [23] = assay: Minimum inhibitory concentration of compound against Ery-S Streptococcus pneumoniae 3773 was determined
Streptococcus pneumoniae [24] = assay: Minimum inhibitory concentration of compound against Ery-R Streptococcus pneumoniae 5032 was determined
Streptococcus pyogenes [25] = assay: Minimum inhibitory concentration of compound against Ery-R Streptococcus pyogenes ATCC 19615 was determined

SMILES | MIC (Staphylococcus aureus [1]) [µg/mL] | MIC (Streptococcus pneumoniae [2]) [µg/mL] | MIC (Streptococcus pneumoniae [3]) [µg/mL] | MIC (Staphylococcus aureus [4]) [µg/mL] | MIC (Haemophilus influenzae [5]) [µg/mL] | MIC (Streptococcus pneumoniae [7]) [µg/mL] | MIC (Streptococcus pyogenes [8]) [µg/mL] | MIC (Streptococcus pyogenes [9]) [µg/mL] | MIC (Streptococcus pneumoniae [10]) [µg/mL] | MIC (Streptococcus pyogenes [18]) [µg/mL] | MIC (Streptococcus pyogenes [21]) [µg/mL] | MIC (Streptococcus pyogenes [22]) [µg/mL] | MIC (Streptococcus pneumoniae [23]) [µg/mL] | MIC (Streptococcus pneumoniae [24]) [µg/mL] | further results
CC[C@H]1OC(=O)[C@H](C)C(=O)[C@H](C)[C@@H](O[C@@H]2O[C@H](C)[C@@H](O)[C@H](O)[C@H]2O)[C@@](C)(OC)C[C@@H](C)C(=O)[C@H](C)[C@H]2N(CCCCn3cc(-c4ccccn4)nn3)C(=O)O[C@]12C | > 64 | 16 (≈ 20 µM) | 4 (≈ 4.99 µM) | > 64 | > 64 | 2 (≈ 2.49 µM) | – | – | – | – | – | – | – | – | MIC (Streptococcus pyogenes [6]): 8 µg/mL (≈ 9.98 µM)
CC[C@H]1OC(=O)[C@H](C)C(=O)[C@H](C)[C@@H](O[C@@H]2O[C@H](C)[C@@H](O)[C@H](N(C)C)[C@H]2O)[C@@](C)(OC)C[C@@H](C)C(=O)[C@H](C)[C@H]2N(CCCCn3cc(-c4ccccn4)nn3)C(=O)O[C@]12C | 0.25 (≈ 0.302 µM) | 16 (≈ 19.3 µM) | – | ≤ 0.125 | 16 (≈ 19.3 µM) | 0.5 (≈ 0.603 µM) | ≤ 0.125 | > 64 | ≤ 0.125 | – | – | – | – | – | –
CC[C@H]1OC(=O)[C@H](C)C(=O)[C@H](C)[C@@H](O[C@@H]2O[C@H](CO)[C@@H](O)[C@H](N(C)C)[C@H]2O)[C@@](C)(OC)C[C@@H](C)C(=O)[C@H](C)[C@H]2N(CCCCn3cc(-c4ccccn4)nn3)C(=O)O[C@]12C | 64 (≈ 75.7 µM) | ≤ 0.125 | – | 4 (≈ 4.73 µM) | 64 (≈ 75.7 µM) | – | ≤ 0.125 | > 64 | ≤ 0.125 | – | – | – | – | – | MIC (Streptococcus pneumoniae [11]): 4 µg/mL (≈ 4.73 µM)
CC[C@H]1OC(=O)[C@H](C)C(=O)[C@H](C)[C@@H](O[C@@H]2O[C@H](COCc3ccccc3)C[C@H](N(C)C)[C@H]2O)[C@@](C)(OC)C[C@@H](C)C(=O)[C@H](C)[C@H]2N(CCCCn3cc(-c4ccccn4)nn3)C(=O)O[C@]12C | – | – | ≤ 0.125 | – | – | – | – | – | – | – | – | – | – | – | MIC (Streptococcus pneumoniae [12]): ≤ 0.125 µg/mL; MIC (Streptococcus pneumoniae [13]): ≤ 0.125 µg/mL; MIC (Streptococcus pyogenes [14]): 0.5 µg/mL (≈ 0.544 µM); MIC (Haemophilus influenzae [15]): 64 µg/mL (≈ 69.6 µM)
CC[C@H]1OC(=O)[C@H](C)C(=O)[C@H](C)[C@@H](O[C@@H]2O[C@H](COCc3ccccc3)[C@@H](O)[C@H](N(C)C)[C@H]2O)[C@@](C)(OC)C[C@@H](C)C(=O)[C@H](C)[C@H]2N(CCCCn3cc(-c4ccccn4)nn3)C(=O)O[C@]12C | – | – | ≤ 0.125 | – | – | – | – | – | – | – | – | – | – | – | MIC (Staphylococcus aureus [16]): ≤ 0.125 µg/mL; MIC (Streptococcus pneumoniae [12]): ≤ 0.125 µg/mL; MIC (Streptococcus pneumoniae [13]): ≤ 0.125 µg/mL; MIC (Staphylococcus aureus [17]): ≤ 0.125 µg/mL; MIC (Streptococcus pyogenes [14]): 2 µg/mL (≈ 2.14 µM); MIC (Streptococcus pyogenes [6]): ≤ 0.125 µg/mL; MIC (Haemophilus influenzae [15]): 64 µg/mL (≈ 68.4 µM)
CC[C@H]1OC(=O)[C@H](C)[C@@H](O[C@H]2C[C@@](C)(OC)[C@@H](O)[C@H](C)O2)[C@H](C)[C@@H](O[C@@H]2O[C@H](C)C[C@H](N(C)C)[C@H]2O)[C@](C)(O)C[C@@H](C)CN(C)[C@H](C)[C@@H](O)[C@]1(C)O [AZITHROMYCIN] | ≥ 64 | > 64 | – | – | 4 (≈ 5.34 µM) | 8 (≈ 10.7 µM) | ≤ 0.125 | – | ≤ 0.125 | > 64 | > 64 | > 64 | > 64 | > 64 | MIC (Staphylococcus aureus [19]): 1 µg/mL (≈ 1.34 µM); MIC (Streptococcus pyogenes [20]): > 64 µg/mL
CC[C@H]1OC(=O)[C@H](C)C(=O)[C@H](C)[C@@H](O[C@@H]2O[C@H](C)C[C@H](N(C)C)[C@H]2O)[C@](C)(OC)C[C@@H](C)C(=O)[C@H](C)[C@H]2N(CCCCn3cnc(-c4cccnc4)c3)C(=O)O[C@]12C [TELITHROMYCIN] | ≤ 0.125 | ≤ 0.125 | ≤ 0.125 | ≤ 0.125 | 4 (≈ 4.93 µM) | ≤ 0.125 | ≤ 0.125 | 16 (≈ 19.7 µM) | – | 64 (≈ 78.8 µM) | 32 (≈ 39.4 µM) | 8 (≈ 9.85 µM) | 1 (≈ 1.23 µM) | 0.5 (≈ 0.616 µM) | –
CC[C@H]1OC(=O)[C@@](C)(F)C(=O)[C@H](C)[C@@H](O[C@@H]2O[C@H](COCc3ccccc3)[C@@H](O)[C@H](N(C)C)[C@H]2O)[C@@](C)(OC)C[C@@H](C)C(=O)[C@H](C)[C@H]2N(CCCCn3cc(-c4cccc(N)c4)nn3)C(=O)O[C@]12C | – | ≤ 0.125 | – | – | 4 (≈ 4.14 µM) | ≤ 0.125 | – | 0.5 (≈ 0.517 µM) | ≤ 0.125 | 8 (≈ 8.27 µM) | 4 (≈ 4.14 µM) | 0.25 (≈ 0.258 µM) | 8 (≈ 8.27 µM) | 4 (≈ 4.14 µM) | MIC (Streptococcus pyogenes [25]): ≤ 0.125 µg/mL
CC[C@H]1OC(=O)[C@H](C)C(=O)[C@H](C)[C@@H](O[C@@H]2O[C@H](C)C[C@H](N(C)C)[C@H]2O)[C@@](C)(OC)C[C@@H](C)C(=O)[C@H](C)[C@H]2N(CCCCn3cc(-c4ccccn4)nn3)C(=O)O[C@]12C | 0.125 (≈ 0.154 µM) | ≤ 0.125 | – | ≤ 0.125 | 4 (≈ 4.92 µM) | ≤ 0.125 | ≤ 0.125 | > 64 | ≤ 0.125 | – | – | – | – | – | –
CC[C@H]1OC(=O)[C@@](C)(F)C(=O)[C@H](C)[C@@H](O[C@@H]2O[C@H](COCc3ccccc3)C[C@H](N(C)C)[C@H]2O)[C@@](C)(OC)C[C@@H](C)C(=O)[C@H](C)[C@H]2N(CCCCn3cc(-c4cccc(N)c4)nn3)C(=O)O[C@]12C | – | ≤ 0.125 | – | – | 4 (≈ 4.21 µM) | ≤ 0.125 | – | ≤ 0.125 | ≤ 0.125 | 8 (≈ 8.41 µM) | 0.5 (≈ 0.526 µM) | 0.25 (≈ 0.263 µM) | 4 (≈ 4.21 µM) | 0.25 (≈ 0.263 µM) | –
CC[C@H]1OC(=O)[C@@](C)(F)C(=O)[C@H](C)[C@@H](O[C@@H]2O[C@H](CO)[C@@H](O)[C@H](N(C)C)[C@H]2O)[C@@](C)(OC)C[C@@H](C)C(=O)[C@H](C)[C@H]2N(CCCCn3cc(-c4cccc(N)c4)nn3)C(=O)O[C@]12C | – | ≤ 0.125 | – | – | > 32 | ≤ 0.125 | – | > 32 | ≤ 0.125 | > 32 | > 32 | > 32 | > 32 | > 32 | MIC (Streptococcus pyogenes [25]): ≤ 0.125 µg/mL
CC[C@H]1OC(=O)[C@H](C)C(=O)[C@H](C)[C@@H](O[C@@H]2OC[C@@H](O)[C@H](N(C)C)[C@H]2O)[C@@](C)(OC)C[C@@H](C)C(=O)[C@H](C)[C@H]2N(CCCCn3cc(-c4ccccn4)nn3)C(=O)O[C@]12C | 4 (≈ 4.91 µM) | 16 (≈ 19.6 µM) | – | 4 (≈ 4.91 µM) | > 64 | 2 (≈ 2.45 µM) | ≤ 0.125 | – | 4 (≈ 4.91 µM) | – | – | – | – | – | –
